# Laboratory results taken from patent US8426345B2, “Method of drug design” (Alchemia Limited, priority 2005, dated 2013).
# Molecular target: T1, Human SST5 somatostatin receptor (Homo sapiens, UniProt P35346)
# T1 construct: expressed in transfected cells; host or cells: HEK-293 EBNA cells (membranes)
# Assay: Filter plate radio-ligand binding assay for SST5 receptor ([125I]SST-14 displacement)
# Settings: for % SST5 radio-ligand binding displaced at conc 0.001: conc 0.001 μM; for % SST5 radio-ligand binding displaced at conc 0.10: conc 0.10 μM; for % SST5 radio-ligand binding displaced at conc 0.5: conc 0.5 μM; for % SST5 radio-ligand binding displaced at conc 1.0: conc 1.0 μM; for % SST5 radio-ligand binding displaced at conc 10: conc 10 μM; for % SST5 radio-ligand binding displaced at conc 0.25: conc 0.25 μM
# [1] = compound conc 50 μM, 2P library
# [2] = compound conc 250 μM, 2P library
# [3] = compound conc 500 μM, 2P library
# T1 sequence (P35346 whole entry): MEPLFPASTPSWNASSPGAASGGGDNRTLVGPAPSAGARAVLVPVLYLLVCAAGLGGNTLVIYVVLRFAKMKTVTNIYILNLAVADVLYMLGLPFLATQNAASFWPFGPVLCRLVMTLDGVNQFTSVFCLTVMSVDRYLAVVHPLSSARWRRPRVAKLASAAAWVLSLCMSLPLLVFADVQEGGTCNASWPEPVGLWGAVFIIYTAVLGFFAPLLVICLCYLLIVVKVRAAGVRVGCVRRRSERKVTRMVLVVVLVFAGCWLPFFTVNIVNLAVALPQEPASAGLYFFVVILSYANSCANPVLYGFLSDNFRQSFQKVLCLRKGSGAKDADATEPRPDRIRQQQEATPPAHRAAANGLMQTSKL
structure (smiles),measurement,setting,value
COCC1OC(OCc2ccc(Cl)cc2)C(NC(=O)CN)C(OCc2ccc3ccccc3c2)C1O (mixture of isomers) [Compound 163],% SST5 radio-ligand binding displaced at conc 0.001,3P library,− (% SST5 radio-ligand binding displaced at cone (μM) −<40%)
same,% SST5 radio-ligand binding displaced at conc 0.10,3P library,− (% SST5 radio-ligand binding displaced at cone (μM) −<40%)
same,% SST5 radio-ligand binding displaced at conc 0.5,3P library,− (% SST5 radio-ligand binding displaced at cone (μM) −<40%)
same,% SST5 radio-ligand binding displaced at conc 1.0,3P library,− (% SST5 radio-ligand binding displaced at cone (μM) −<40%)
same,% SST5 radio-ligand binding displaced at conc 10,3P library,++ (% SST5 radio-ligand binding displaced at conc (μM) >60%)
COC[C@H]1O[C@@H](SC)[C@H](NC(=O)CCN)[C@@H](OCc2ccc(Cl)cc2)[C@@H]1O [Compound 17],% SST5 radio-ligand binding displaced at conc 50,[1],− (% SST5 radio-ligand binding displaced at cone (μM) −<40%)
same,% SST5 radio-ligand binding displaced at conc 250,[2],− (% SST5 radio-ligand binding displaced at cone (μM) −<40%)
same,% SST5 radio-ligand binding displaced at conc 500,[3],− (% SST5 radio-ligand binding displaced at cone (μM) −<40%)
COC[C@H]1O[C@H](OCc2ccc3ccccc3c2)[C@H](NC(=O)CCCN)[C@@H](OCc2nccc3ccccc23)[C@@H]1O [Compound 149],% SST5 radio-ligand binding displaced at conc 0.25,3P library,− (% SST5 radio-ligand binding displaced at cone (μM) −<40%)
same,% SST5 radio-ligand binding displaced at conc 1.0,3P library,+ (% SST5 radio-ligand binding displaced at cone (μM) 60>+>40%)
COCC1OC(OCc2ccc3ccccc3c2)C(NC(=O)CCCN)C(OCc2ccc(-c3ccccc3)cc2)C1O (mixture of isomers) [Compound 128],% SST5 radio-ligand binding displaced at conc 0.001,3P library,− (% SST5 radio-ligand binding displaced at cone (μM) −<40%)
same,% SST5 radio-ligand binding displaced at conc 0.10,3P library,− (% SST5 radio-ligand binding displaced at cone (μM) −<40%)
same,% SST5 radio-ligand binding displaced at conc 0.25,3P library,− (% SST5 radio-ligand binding displaced at cone (μM) −<40%)
same,% SST5 radio-ligand binding displaced at conc 0.5,3P library,++ (% SST5 radio-ligand binding displaced at conc (μM) >60%)
same,% SST5 radio-ligand binding displaced at conc 1.0,3P library,+ (% SST5 radio-ligand binding displaced at cone (μM) 60>+>40%)
same,% SST5 radio-ligand binding displaced at conc 10,3P library,++ (% SST5 radio-ligand binding displaced at conc (μM) >60%)
COCC1OC(OCc2ccc3ccccc3c2)C(NC(=O)CCN)C(OCc2ccc(Cl)cc2)C1O (mixture of isomers) [Compound 66],% SST5 radio-ligand binding displaced at conc 0.001,3P library,− (% SST5 radio-ligand binding displaced at cone (μM) −<40%)
same,% SST5 radio-ligand binding displaced at conc 0.10,3P library,− (% SST5 radio-ligand binding displaced at cone (μM) −<40%)
same,% SST5 radio-ligand binding displaced at conc 0.5,3P library,++ (% SST5 radio-ligand binding displaced at conc (μM) >60%)
same,% SST5 radio-ligand binding displaced at conc 1.0,3P library,++ (% SST5 radio-ligand binding displaced at conc (μM) >60%)
same,% SST5 radio-ligand binding displaced at conc 10,3P library,++ (% SST5 radio-ligand binding displaced at conc (μM) >60%)
COCC1OC(OCc2ccc(Cl)cc2)C(NC(=O)CN)C(OCc2ccc(-c3ccccc3)cc2)C1O (mixture of isomers) [Compound 173],% SST5 radio-ligand binding displaced at conc 0.25,3P library,− (% SST5 radio-ligand binding displaced at cone (μM) −<40%)
same,% SST5 radio-ligand binding displaced at conc 1.0,3P library,− (% SST5 radio-ligand binding displaced at cone (μM) −<40%)
COCC1OC(OCc2ccc(Cl)cc2)C(NC(=O)CN)C(OCc2ccccc2)C1O (mixture of isomers) [Compound 160],% SST5 radio-ligand binding displaced at conc 0.001,3P library,− (% SST5 radio-ligand binding displaced at cone (μM) −<40%)
same,% SST5 radio-ligand binding displaced at conc 0.10,3P library,− (% SST5 radio-ligand binding displaced at cone (μM) −<40%)
same,% SST5 radio-ligand binding displaced at conc 0.5,3P library,− (% SST5 radio-ligand binding displaced at cone (μM) −<40%)
same,% SST5 radio-ligand binding displaced at conc 1.0,3P library,− (% SST5 radio-ligand binding displaced at cone (μM) −<40%)
same,% SST5 radio-ligand binding displaced at conc 10,3P library,− (% SST5 radio-ligand binding displaced at cone (μM) −<40%)
CNCCCC(=O)N[C@H]1[C@@H](OCc2ccc3ccccc3c2)O[C@H](COC)[C@@H](O)[C@@H]1OCc1ccc2ccccc2c1 [Compound 139],% SST5 radio-ligand binding displaced at conc 0.25,3P library,− (% SST5 radio-ligand binding displaced at cone (μM) −<40%)
same,% SST5 radio-ligand binding displaced at conc 1.0,3P library,+ (% SST5 radio-ligand binding displaced at cone (μM) 60>+>40%)
"COC1C(O)C(COCc2ccc(Cl)cc2)OC(OCc2ccc3ccccc3c2)C1NC(=O)CCN (single isomer, unassigned) [Compound 94]",% SST5 radio-ligand binding displaced at conc 0.25,3P library,− (% SST5 radio-ligand binding displaced at cone (μM) −<40%)
same,% SST5 radio-ligand binding displaced at conc 1.0,3P library,− (% SST5 radio-ligand binding displaced at cone (μM) −<40%)
COC[C@H]1O[C@H](OCc2ccc(Cl)cc2)[C@H](NC(=O)CCN)[C@H](OC)[C@@H]1O [Compound 38],% SST5 radio-ligand binding displaced at conc 50,[1],− (% SST5 radio-ligand binding displaced at cone (μM) −<40%)
same,% SST5 radio-ligand binding displaced at conc 250,[2],+ (% SST5 radio-ligand binding displaced at cone (μM) 60>+>40%)
same,% SST5 radio-ligand binding displaced at conc 500,[3],++ (% SST5 radio-ligand binding displaced at conc (μM) >60%)
COC[C@H]1O[C@@H](OCc2ccc3ccccc3c2)[C@H](NC(=O)CCN)[C@H](OCc2ccc3ccccc3c2)[C@@H]1O [Compound 85],% SST5 radio-ligand binding displaced at conc 0.5,3P library,++ (% SST5 radio-ligand binding displaced at conc (μM) >60%)
same,% SST5 radio-ligand binding displaced at conc 10,3P library,++ (% SST5 radio-ligand binding displaced at conc (μM) >60%)
COC[C@H]1O[C@@H](OCc2ccc3ccccc3c2)[C@H](NC(=O)CCN)[C@@H](OC)[C@@H]1O [Compound 21],% SST5 radio-ligand binding displaced at conc 50,[1],− (% SST5 radio-ligand binding displaced at cone (μM) −<40%)
same,% SST5 radio-ligand binding displaced at conc 250,[2],+ (% SST5 radio-ligand binding displaced at cone (μM) 60>+>40%)
same,% SST5 radio-ligand binding displaced at conc 500,[3],++ (% SST5 radio-ligand binding displaced at conc (μM) >60%)
NCCC(=O)NC1C(OCc2ccc3ccccc3c2)OC(COCc2ccc3ccccc3c2)C(O)C1OCc1ccc2ccccc2c1 (stereo not shown) [Compound 80],% SST5 radio-ligand binding displaced at conc 0.25,3P library,− (% SST5 radio-ligand binding displaced at cone (μM) −<40%)
same,% SST5 radio-ligand binding displaced at conc 1.0,3P library,++ (% SST5 radio-ligand binding displaced at conc (μM) >60%)
COC[C@H]1O[C@H](OCc2ccc3ccccc3c2)[C@H](NC(=O)CCN)[C@@H](OCc2ccc(Cl)c(Cl)c2)[C@@H]1O [Compound 113],% SST5 radio-ligand binding displaced at conc 0.25,3P library,++ (% SST5 radio-ligand binding displaced at conc (μM) >60%)
same,% SST5 radio-ligand binding displaced at conc 1.0,3P library,++ (% SST5 radio-ligand binding displaced at conc (μM) >60%)
"COC[C@H]1OC(OCc2ccc(Cl)cc2)[C@H](NC(=O)CN)[C@@H](OCc2ccc(Cl)cc2)[C@@H]1O (single isomer, unassigned) [Compound 171]",% SST5 radio-ligand binding displaced at conc 0.25,3P library,− (% SST5 radio-ligand binding displaced at cone (μM) −<40%)
same,% SST5 radio-ligand binding displaced at conc 1.0,3P library,− (% SST5 radio-ligand binding displaced at cone (μM) −<40%)
COC[C@H]1O[C@H](OCc2ccc(Cl)cc2)[C@H](NC(=O)CN)[C@@H](OC)[C@@H]1O [Compound 156],% SST5 radio-ligand binding displaced at conc 50,"conc 50 μM, 3P library",− (% SST5 radio-ligand binding displaced at cone (μM) −<40%)
same,% SST5 radio-ligand binding displaced at conc 250,"conc 250 μM, 3P library",− (% SST5 radio-ligand binding displaced at cone (μM) −<40%)
same,% SST5 radio-ligand binding displaced at conc 500,"conc 500 μM, 3P library",− (% SST5 radio-ligand binding displaced at cone (μM) −<40%)
"CO[C@H]1[C@H](O)[C@@H](COCc2ccc(Cl)cc2)OC(OCc2ccc3ccccc3c2)[C@@H]1NC(=O)CCN (single isomer, unassigned) [Compound 95]",% SST5 radio-ligand binding displaced at conc 0.25,3P library,− (% SST5 radio-ligand binding displaced at cone (μM) −<40%)
same,% SST5 radio-ligand binding displaced at conc 1.0,3P library,− (% SST5 radio-ligand binding displaced at cone (μM) −<40%)
COC[C@H]1O[C@@H](OCc2ccc3ccccc3c2)[C@H](NC(=O)CCCN)[C@@H](OC)[C@@H]1O [Compound 28],% SST5 radio-ligand binding displaced at conc 50,[1],− (% SST5 radio-ligand binding displaced at cone (μM) −<40%)
same,% SST5 radio-ligand binding displaced at conc 250,[2],− (% SST5 radio-ligand binding displaced at cone (μM) −<40%)
same,% SST5 radio-ligand binding displaced at conc 500,[3],++ (% SST5 radio-ligand binding displaced at conc (μM) >60%)
COC[C@H]1O[C@H](OCc2ccc3ccccc3c2)[C@H](NC(=O)CCN)[C@@H](OCc2cccc3cccnc23)[C@@H]1O [Compound 110],% SST5 radio-ligand binding displaced at conc 0.25,3P library,++ (% SST5 radio-ligand binding displaced at conc (μM) >60%)
same,% SST5 radio-ligand binding displaced at conc 1.0,3P library,++ (% SST5 radio-ligand binding displaced at conc (μM) >60%)
CO[C@@H]1[C@H](O)[C@@H](COCc2ccc(Cl)cc2)O[C@@H](SC)[C@@H]1NC(=O)CCCN [Compound 41],% SST5 radio-ligand binding displaced at conc 50,[1],− (% SST5 radio-ligand binding displaced at cone (μM) −<40%)
same,% SST5 radio-ligand binding displaced at conc 250,[2],− (% SST5 radio-ligand binding displaced at cone (μM) −<40%)
same,% SST5 radio-ligand binding displaced at conc 500,[3],− (% SST5 radio-ligand binding displaced at cone (μM) −<40%)
COCC1OC(OCc2ccc(Cl)cc2)C(NC(=O)CN)C(OCc2ccc(Cl)cc2)C1O (mixture of isomers) [Compound 161],% SST5 radio-ligand binding displaced at conc 0.001,3P library,− (% SST5 radio-ligand binding displaced at cone (μM) −<40%)
same,% SST5 radio-ligand binding displaced at conc 0.10,3P library,− (% SST5 radio-ligand binding displaced at cone (μM) −<40%)
same,% SST5 radio-ligand binding displaced at conc 0.5,3P library,− (% SST5 radio-ligand binding displaced at cone (μM) −<40%)
same,% SST5 radio-ligand binding displaced at conc 1.0,3P library,− (% SST5 radio-ligand binding displaced at cone (μM) −<40%)
same,% SST5 radio-ligand binding displaced at conc 10,3P library,++ (% SST5 radio-ligand binding displaced at conc (μM) >60%)
COC1C(O)C(COCc2ccc3ccccc3c2)OC(OCc2ccc(Cl)cc2)C1NC(=O)C1CCCN1 (mixture of isomers) [Compound 165],% SST5 radio-ligand binding displaced at conc 0.5,3P library,− (% SST5 radio-ligand binding displaced at cone (μM) −<40%)
same,% SST5 radio-ligand binding displaced at conc 10,3P library,++ (% SST5 radio-ligand binding displaced at conc (μM) >60%)
NCCC(=O)NC1C(OCc2ccc3ccccc3c2)OC(COCc2ccccc2)C(O)C1OCc1ccc2ccccc2c1 (stereo not shown) [Compound 82],% SST5 radio-ligand binding displaced at conc 0.25,3P library,+ (% SST5 radio-ligand binding displaced at cone (μM) 60>+>40%)
same,% SST5 radio-ligand binding displaced at conc 1.0,3P library,++ (% SST5 radio-ligand binding displaced at conc (μM) >60%)
"COC[C@H]1OC(OCc2ccc(Cl)cc2)[C@H](NC(=O)CN)[C@@H](OCc2ccc(Cl)cc2)[C@@H]1O (single isomer, unassigned) [Compound 170]",% SST5 radio-ligand binding displaced at conc 0.25,3P library,− (% SST5 radio-ligand binding displaced at cone (μM) −<40%)
same,% SST5 radio-ligand binding displaced at conc 1.0,3P library,− (% SST5 radio-ligand binding displaced at cone (μM) −<40%)
